Entries after “also recorded” stand apart in the source; their conditions may differ.
Key:
[1] = test system: Sox2, Oct 3/4 and Nanog expression in metastatic prostate stem cell lines; test: Western blot of stem cell markers after Docetaxel; type: cell-based, human; settings: Docetaxel 1 nM, 2 nM, 5 nM, 10 nM
Method: (§1) Prostate cancer stem cells from metastatic prostate cancer cell lines were examined for their sensitivity to conventional cancer treatments (e.g., radiation and chemotherapy). […] Metastatic prostate stem cell lines were also treated with Docetaxel, a frontline treatment for drug-resistant cancer cells.
For the experiments described above, Western-blot analysis was performed by standard methods on isolated cancer stem cells and non-cancer stem cells. Whole cell lysates were prepared in lysis buffer with a commercially available protease inhibitor cocktail (Pierce) at 4° C., followed by centrifugation at 13,000×g for 10 min. Extracts were separated by SDS/PAGE and transferred to nitrocellulose membranes. The membranes were blocked with 5% nonfat dry milk in 20 mM Tris-HCl (pH 7.5), 500 mM sodium chloride, and 0.05% Tween 20 for 2 h and then incubated with commercially available primary antibodies against OCT3/4, c-Myc, β-actin (Cell Signaling), SOX2, Klf4 (Santa Cruz), Nanog (BioLegend), or E-cadherin (BD Bioscience) in the same buffer with 1% BSA (fraction V). After washing, the blots were incubated with an HRP-conjugated secondary antibody and visualized with a commercially available chemiluminescence detection system (Amersham). β-actin-specific Abs were used to ensure equal protein loading.

[2] = test system: prostate cancer stem cells (CSC) and non-stem prostate cancer cells (Non-CSC); test: cell viability after Docetaxel; type: cell-based, human; settings: 5 nM Docetaxel, Day 0, 1, 2 and 3 (up to 72 hours)
Method: FIG. 12B is a graph depicting the cell viability of prostate cancer stem cells (CSC) and non-stem prostate cancer cells (Non-CSC) observed for up to 72 hours after treatment with Docetaxel. Cell viability was determined by quantifying the surviving prostate cancer stem cells (CSC) and non-stem prostate cancer cells (Non-CSC) in the samples exposed to 5 nM Docetaxel at Day 0, 1, 2 and 3.
as §1

SMILES: CC(=O)O[C@@]12CO[C@@H]1C[C@H](O)[C@@]1(C)C(=O)[C@H](O)C3=C(C)[C@@H](OC(=O)[C@H](O)[C@@H](NC(=O)OC(C)(C)C)c4ccccc4)C[C@@](O)([C@@H](OC(=O)c4ccccc4)[C@H]21)C3(C)C [Docetaxel]
- detection of Sox2, Oct 3/4 and Nanog expression [1]: increased detection of Sox2, Oct 3/4 and Nanog expression with increasing dose
- cell viability of prostate cancer stem cells vs non-stem prostate cancer cells [2]: more cell viability compared to non-stem prostate cancer cells; also recorded: resistant
